Reference: PMC6253949, “The Inhibitory Action of Kohamaic Acid A Derivatives on Mammalian DNA Polymerase β” (Molecules, 2008)
Where two headings read alike, the source gives them in different places.

Key:
Calf DNA polymerase α [1] = target: T1, Calf DNA polymerase α (Bos taurus, UniProt A0AAA9THK8); assay: DNA polymerase assay, calf pol α; assay type: biochemical
Excerpt: (§1) Pol α was purified from calf thymus by immuno-affinity column chromatography as described by Tamai et al.. Recombinant rat pol β was purified from E. coli JMpβ5 as described by Date et al.. The human pol γ catalytic gene was cloned into pFastBac. Histidine-tagged enzyme was expressed using the BAC-TO-BAC HT Baculovirus Expression System according to the supplier's manual (LIFE TECHNOLOGIES, MD, USA) and purified using ProBoundresin (Invitrogen Japan, Tokyo, Japan). Human pols δ and ε were purified by the nuclear fractionation of human peripheral blood cancer cells (Molt-4) using the second subunit of pols δ and ε-conjugated affinity column chromatography, respectively. Recombinant human pols η and ι tagged with His6 at their C-terminal were expressed in SF9 insect cells using the baculovirus expression system, and were purified as described previously. A truncated form of pol κ (i.e., hDINB1DC) with 6 x His-tags attached at the C-terminal was overproduced using the BAC-to-BAC Baculovirus Expression System kit (GIBCO BRL, MD, USA) and purified as described previously. Recombinant human His-pol λ was overexpressed and purified according to a method described previously. Fish pol δ was purified from the testis of cherry salmon (Oncorhynchus masou). Pol I (α-like) from a higher plant, cauliflower inflorescence, was purified according to the methods outlined by Sakaguchi et al.. The Klenow fragment of pol I from E. coli was purchased from Worthington Biochemical Corp. (Freehold, NJ, USA). Taq pol, T4 pol, T7 RNA polymerase and T4 polynucleotide kinase were purchased from Takara (Kyoto, Japan). Bovine pancreas deoxyribonuclease I (DNase I) was obtained from Stratagene Cloning Systems (La Jolla, CA, USA).
(§2) The reaction mixtures for pol α, pol β, fish pol δ, plant pol I (α-like) and prokaryotic pols were described previously, and those for pol γ, and pols δ and ε were as described by Umeda et al. and Ogawa et al., respectively. The reaction mixtures for pols η, ι and κ were the same as for pol α, and the reaction mixture for pol λ was the same as that for pol β.
For pols, poly(dA)/oligo(dT)12-18 (A/T = 2/1) and dTTP were used as the DNA template-primer and nucleotide (i.e., dNTP) substrate, respectively. KA-A analogues (i.e., compounds 1–12) were dissolved in distilled dimethyl sulfoxide (DMSO) at various concentrations and sonicated for 30 sec. Aliquots of 4 μL of sonicated samples were mixed with 16 μL of each enzyme (final amount 0.05 units) in 50 mM Tris-HCl (pH 7.5) containing 1 mM dithiothreitol, 50% glycerol and 0.1 mM EDTA, and kept at 0 °C for 10 min. […] Activity without the inhibitor was considered 100%, and the remaining activity at each concentration of the inhibitor was determined relative to this value. […]

HL-60 cells = assay: HL-60 cancer cell growth, MTT assay; assay type: cell-based, human; settings: 50 μM, 24 hr
Experimental: To investigate the effects of KA-A derivatives in cultured cells, we used a human cancer cell line, HL-60, human promyelocytic leukemia cells (IFO 050022), supplied by the Health Science Research Resources Bank (Osaka, Japan). The cells were routinely cultured in RPMI 1640 medium supplemented with 10% fetal bovine serum, 100 μg/mL streptomycin, 100 unit/mL penicillin, and 1.6 mg/mL NaHCO3. The cells were cultured at 37 °C in standard medium in a humidified atmosphere of 5% CO2-95% air. The rate of the cancer cell growth of the compound was investigated as follows: high concentrations (10 mM) of the compounds were dissolved in DMSO and stocked. Approximately 1 x 10^4 cells per well were inoculated in 96-well micro plates, and then the compound stock solution was diluted to various concentrations, and applied to each well. After incubation for 24 hr, the survival rate was determined by MTT (3-(4,5-dimethylthiazol-2-yl)-2,5-diphenyl tetrazolium bromide) assay.

[2] = test system: double-stranded DNA (dsDNA); assay: Thermal transition (Tm) of double-stranded DNA; assay type: binding; settings: compound 11 at 200 μM; data not shown
Experimental: The Tm of dsDNA with an excess amount of compound 11 (200 μM) was measured using a spectrophotometer equipped with a thermoelectric cell holder.

Calf DNA polymerase α [3] = target: T1, Calf DNA polymerase α; parameters: method as in PMID 12758147; settings: reported previously; read-out: IC50 value, pol α; cited from earlier work
Rat DNA polymerase β [4] = target: T2, Rat DNA polymerase β (Rattus norvegicus, UniProt P06766); parameters: method as in PMID 12758147; settings: reported previously; read-out: IC50 value, pol β; cited from earlier work
T2 construct: made in house; host or cells: E. coli JMpβ5

Rat DNA polymerase β [5] = target: T2, Rat DNA polymerase β; assay: DNA polymerase assay, rat pol β; assay type: biochemical; settings: 10 and 100 μM of compound (Figure 2B)
Excerpt: as §1, §2
For pols, poly(dA)/oligo(dT)12-18 (A/T = 2/1) and dTTP were used as the DNA template-primer and nucleotide (i.e., dNTP) substrate, respectively. KA-A analogues (i.e., compounds 1–12) were dissolved in distilled dimethyl sulfoxide (DMSO) at various concentrations and sonicated for 30 sec. Aliquots of 4 μL of sonicated samples were mixed with 16 μL of each enzyme (final amount 0.05 units) in 50 mM Tris-HCl (pH 7.5) containing 1 mM dithiothreitol, 50% glycerol and 0.1 mM EDTA, and kept at 0 °C for 10 min. These inhibitor-enzyme mixtures (8 μl) were added to 16 μL of each of the enzyme standard reaction mixtures, and incubation was carried out at 37 °C for 60 min, except for Taq pol, which was incubated at 74 °C for 60 min. Activity without the inhibitor was considered 100%, and the remaining activity at each concentration of the inhibitor was determined relative to this value. One unit of pol activity was defined as the amount of enzyme that catalyzed the incorporation of 1 nmol of dNTP (i.e., dTTP) into synthetic DNA template-primers in 60 min at 37 °C under the normal reaction conditions for each enzyme.

T1 sequence (Q58D13 whole entry): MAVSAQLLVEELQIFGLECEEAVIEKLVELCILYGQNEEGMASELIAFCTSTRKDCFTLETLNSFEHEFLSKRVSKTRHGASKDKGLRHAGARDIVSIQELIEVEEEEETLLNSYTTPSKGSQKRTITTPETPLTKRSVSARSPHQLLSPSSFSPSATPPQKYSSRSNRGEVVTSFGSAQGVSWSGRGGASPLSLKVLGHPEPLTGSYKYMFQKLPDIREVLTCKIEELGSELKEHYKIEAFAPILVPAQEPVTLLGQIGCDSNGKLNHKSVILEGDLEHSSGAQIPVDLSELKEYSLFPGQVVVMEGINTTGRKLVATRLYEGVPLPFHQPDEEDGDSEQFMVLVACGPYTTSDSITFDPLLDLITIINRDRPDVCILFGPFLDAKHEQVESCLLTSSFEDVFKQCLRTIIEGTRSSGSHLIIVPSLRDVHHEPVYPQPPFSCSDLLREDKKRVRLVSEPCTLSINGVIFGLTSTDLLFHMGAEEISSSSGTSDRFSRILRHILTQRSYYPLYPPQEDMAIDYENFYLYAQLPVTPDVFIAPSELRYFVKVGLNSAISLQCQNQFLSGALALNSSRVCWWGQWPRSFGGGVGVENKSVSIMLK
T1 sequence (A0AAA9THK8 entry or part of it): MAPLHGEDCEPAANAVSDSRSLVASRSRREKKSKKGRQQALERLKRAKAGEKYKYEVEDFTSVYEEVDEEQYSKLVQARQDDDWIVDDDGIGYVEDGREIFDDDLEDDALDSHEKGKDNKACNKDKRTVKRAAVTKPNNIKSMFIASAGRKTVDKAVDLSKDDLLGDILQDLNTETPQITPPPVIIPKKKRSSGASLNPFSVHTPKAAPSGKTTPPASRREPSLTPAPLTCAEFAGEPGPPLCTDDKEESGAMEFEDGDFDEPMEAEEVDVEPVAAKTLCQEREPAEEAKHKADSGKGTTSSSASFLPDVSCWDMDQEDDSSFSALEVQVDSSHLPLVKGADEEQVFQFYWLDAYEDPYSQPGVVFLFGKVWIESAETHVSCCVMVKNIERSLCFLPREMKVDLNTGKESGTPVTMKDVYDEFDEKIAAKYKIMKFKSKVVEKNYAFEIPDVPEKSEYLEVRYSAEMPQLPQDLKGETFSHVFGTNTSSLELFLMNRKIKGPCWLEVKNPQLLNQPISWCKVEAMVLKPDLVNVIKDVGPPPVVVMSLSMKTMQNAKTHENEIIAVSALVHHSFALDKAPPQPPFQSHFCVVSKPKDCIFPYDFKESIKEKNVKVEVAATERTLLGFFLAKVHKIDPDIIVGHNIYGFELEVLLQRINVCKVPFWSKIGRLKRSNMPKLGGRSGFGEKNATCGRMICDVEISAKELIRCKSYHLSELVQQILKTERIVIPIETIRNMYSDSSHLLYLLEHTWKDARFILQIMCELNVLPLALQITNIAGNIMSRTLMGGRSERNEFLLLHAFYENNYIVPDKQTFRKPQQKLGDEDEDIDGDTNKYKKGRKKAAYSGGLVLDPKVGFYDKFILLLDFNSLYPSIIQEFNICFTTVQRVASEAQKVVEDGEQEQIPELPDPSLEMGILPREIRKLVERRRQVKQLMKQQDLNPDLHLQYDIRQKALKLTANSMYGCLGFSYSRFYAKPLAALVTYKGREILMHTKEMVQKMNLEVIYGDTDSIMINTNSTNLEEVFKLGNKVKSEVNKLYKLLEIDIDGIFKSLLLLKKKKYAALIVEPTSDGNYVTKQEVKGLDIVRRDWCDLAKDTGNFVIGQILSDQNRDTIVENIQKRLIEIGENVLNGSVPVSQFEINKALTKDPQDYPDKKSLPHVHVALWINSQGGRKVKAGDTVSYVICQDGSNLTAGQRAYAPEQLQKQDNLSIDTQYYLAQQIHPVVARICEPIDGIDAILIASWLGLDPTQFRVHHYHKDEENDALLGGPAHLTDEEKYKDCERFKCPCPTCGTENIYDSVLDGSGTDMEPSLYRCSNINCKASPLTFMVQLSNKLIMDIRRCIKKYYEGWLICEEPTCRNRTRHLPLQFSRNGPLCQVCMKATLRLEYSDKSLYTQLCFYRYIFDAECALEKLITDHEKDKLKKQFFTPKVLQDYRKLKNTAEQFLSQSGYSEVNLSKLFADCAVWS
T1 sequence (A0JNF4 entry or part of it, further chain): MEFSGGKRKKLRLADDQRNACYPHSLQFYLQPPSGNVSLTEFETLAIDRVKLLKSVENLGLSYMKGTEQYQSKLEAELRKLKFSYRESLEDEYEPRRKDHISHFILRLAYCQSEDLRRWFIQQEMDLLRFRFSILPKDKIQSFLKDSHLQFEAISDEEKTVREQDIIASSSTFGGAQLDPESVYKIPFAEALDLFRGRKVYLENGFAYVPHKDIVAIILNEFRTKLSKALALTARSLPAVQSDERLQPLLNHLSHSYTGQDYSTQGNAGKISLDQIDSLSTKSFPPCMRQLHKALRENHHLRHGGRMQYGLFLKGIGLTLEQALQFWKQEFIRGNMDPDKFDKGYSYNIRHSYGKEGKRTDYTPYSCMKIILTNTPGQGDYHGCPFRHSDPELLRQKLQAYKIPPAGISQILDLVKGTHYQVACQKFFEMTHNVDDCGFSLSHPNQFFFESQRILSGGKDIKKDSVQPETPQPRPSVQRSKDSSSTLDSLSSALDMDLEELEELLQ
T1 sequence (A0A3Q1MF00 entry or part of it, further chain): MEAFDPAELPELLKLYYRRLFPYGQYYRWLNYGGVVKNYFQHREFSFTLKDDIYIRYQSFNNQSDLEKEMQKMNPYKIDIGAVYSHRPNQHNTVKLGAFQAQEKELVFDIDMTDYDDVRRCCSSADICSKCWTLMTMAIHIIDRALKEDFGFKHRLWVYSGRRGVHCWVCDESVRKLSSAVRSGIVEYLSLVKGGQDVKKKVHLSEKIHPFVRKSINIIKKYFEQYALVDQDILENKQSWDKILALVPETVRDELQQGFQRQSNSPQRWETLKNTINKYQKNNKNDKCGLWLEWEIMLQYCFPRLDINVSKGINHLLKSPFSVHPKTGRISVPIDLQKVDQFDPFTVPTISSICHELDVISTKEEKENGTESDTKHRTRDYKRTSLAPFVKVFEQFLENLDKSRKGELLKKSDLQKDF

SMILES: C[C@@]1(CO)[C@H](O)CC[C@@]2(C)[C@H]1CC[C@H]1C[C@@H]3C[C@@]12CC[C@]3(O)CO [aphidicolin, reference compound]
- IC50 (Calf DNA polymerase α [1]): 40 µM

SMILES: CC1=CC[C@H]2C(C)(C)CCC[C@]2(C)[C@H]1CCCCCCCCCCCCC(=O)O (relative stereo) [compound 10, (1S*,4aS*,8aS*)-13-(1,4,4a,5,6,7,8,8a-octahydro-2,5,5,8a-tetramethylnaphthalen-1-yl)tridecanoic acid]
- Growth inhibitory effect on HL-60 cells, rank among compounds tested (HL-60 cells): third strongest

SMILES: CC[n+]1c(-c2ccccc2)c2cc(N)ccc2c2ccc(N)cc21 [ethidium bromide, reference compound]
- Thermal transition of Tm of dsDNA [2]: clear thermal transition

SMILES: CC1=CC[C@H]2C(C)(C)CCC[C@]2(C)[C@H]1CCCCCCCCCCCCCCCCCCCCC(=O)O (relative stereo) [compound 12, (1S*,4aS*,8aS*)-21-(1,4,4a,5,6,7,8,8a-octahydro-2,5,5,8a-tetramethylnaphthalen-1-yl)henicosanoic acid]
- Growth inhibitory effect on HL-60 cells, rank among compounds tested (HL-60 cells): second

SMILES: CC(C)=CCC[C@@]1(C)CCC[C@]2(C)[C@@H](CC/C(C)=C/C(=O)O)C(C)=CC[C@@H]12 [compound 1, kohamaic acid A]
- IC50 (Calf DNA polymerase α [3]): 7.6 µM
- IC50 (Rat DNA polymerase β [4]): 8.4 µM

SMILES: CC1=CC[C@H]2C(C)(C)CCC[C@]2(C)[C@H]1CCCCCCCCC(=O)O (relative stereo) [compound 9, (1S*,4aS*,8aS*)-9-(1,4,4a,5,6,7,8,8a-octahydro-2,5,5,8a-tetramethylnaphthalen-1-yl)nonanoic acid]
- Inhibitory effect on pol α compared with KA-A (Calf DNA polymerase α [1]; 10 and 100 μM of compound (Figure 2A)): as strong as that of KA-A
- Inhibitory effect on pol β compared with KA-A (Rat DNA polymerase β [5]): as strong as that of KA-A
